According to PubChem BioAssay (NCI):
“And” between values parts separate entries of the source, which are not always exact repeats. Equal entries are not always repeated.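 Test compounds were applied to cells in 96-well plates for 48 hours at 5 doses. GI50 marks 50% less growth. TGI is the concentration that stops growth completely.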

Legend:
Assay in all cases: NCI tumour cell line growth inhibition, 48 h
IGROV1 ovarian = system: IGROV1 ovarian
UACC-257 melanoma = system: UACC-257 melanoma
RPMI-8226 leukemia = system: RPMI-8226 leukemia
LOX IMVI melanoma = system: LOX IMVI melanoma
UACC-62 melanoma = system: UACC-62 melanoma
DU-145 prostate = system: DU-145 prostate
NCI-H522 lung = system: NCI-H522 lung
786-0 renal = system: 786-0 renal
OVCAR-3 ovarian = system: OVCAR-3 ovarian
HOP-92 NSCLC = system: HOP-92 NSCLC

SMILES	GI50 (IGROV1 ovarian) [µM]	TGI (IGROV1 ovarian)	GI50 (UACC-257 melanoma) [µM]	TGI (UACC-257 melanoma) [µM]	GI50 (RPMI-8226 leukemia) [µM]	TGI (RPMI-8226 leukemia) [µM]	GI50 (LOX IMVI melanoma) [µM]	TGI (LOX IMVI melanoma) [µM]	GI50 (UACC-62 melanoma) [µM]	TGI (UACC-62 melanoma) [µM]	GI50 (DU-145 prostate)	TGI (DU-145 prostate)	GI50 (NCI-H522 lung) [µM]	TGI (NCI-H522 lung) [µM]	GI50 (786-0 renal)	TGI (786-0 renal)	GI50 (OVCAR-3 ovarian)	TGI (OVCAR-3 ovarian) [µM]	GI50 (HOP-92 NSCLC) [µM]	TGI (HOP-92 NSCLC) [µM]
Nc1nn(C(=O)Nc2c(F)cccc2F)c2ccccc12	7.7	> 100 µM	71.7	> 100	16.1	> 100	49.3	> 100	43.9	> 100	62.3 µM	> 100 µM	55.1	> 100	> 100 µM	> 100 µM	65.7 µM	> 100	17.3	> 100
CCCN(CCC)c1ccc(C=O)c(C)c1	61	> 100 µM	19.2	> 96.3	69.4	> 100	65	> 100	28.4	> 100	77.6 µM	> 100 µM	37.4	> 100	43.9 µM	> 100 µM	35.4 µM	> 100	16.4	64.7
CN1CCN(CCCN2c3ccccc3Sc3ccc(Cl)cc32)CC1	–	11.7 µM and 67.3 µM	–	–	6.16	16	4.75	11.6	–	–	6.53 µM and 50.9 µM	13.5 µM and 94.6 µM	42	56.8	6.15 µM and 38 µM	12.8 µM and 61.4 µM	5.94 µM and 55.2 µM	12.8	0.894	5.25
COc1cccc(C2SCc3nc4ccccc4n32)c1 (stereo unspecified)	–	> 100 µM	–	> 100	–	–	–	> 100	–	> 100	–	–	–	–	–	> 100 µM	–	> 100	–	69.8
COc1ccc(-c2cn(-c3cc(OC)c(OC)c(OC)c3)c(=O)[nH]2)cc1OC	> 100	> 100 µM	> 100	> 100	> 100	> 100	> 100	> 100	> 100	> 100	> 100 µM	> 100 µM	> 100	> 100	> 100 µM	> 100 µM	> 100 µM	> 100	> 100	> 100
CCNCCNc1cc(-c2ccc(C(F)(F)F)cc2)c(C#N)c2nc3cc(Cl)c(Cl)cc3n12	–	–	1.9	3.39	1.71	3.85	0.543	1.88	1.84	3.57	1.7 µM	3.13 µM	1.78	3.37	1.53 µM	3.02 µM	1.66 µM	3.13	1.41	2.96
CCCCCCCCCCCCCCCCN(CC)CC	1.79	3.36 µM	1.99	4.98	2.23	4.75	1.73	3.38	1.75	3.28	2.79 µM	7.52 µM	1.76	3.48	1.69 µM	3.1 µM	2.87 µM	7.99	1.74	3.94
O=[N+]([O-])c1oc2ccc3ccccc3c2c1CCO	–	3.56 µM	–	4.2	–	22.2	–	9.52	–	12.5	–	> 36.5 µM	–	3.77	–	> 50 µM	–	58.5	–	35
Cc1ccccc1C(C(=O)NC1CCCCC1)N(C(=O)CNc1ccc(C#N)cc1)c1cccc(F)c1 (stereo unspecified)	25	> 100 µM	50	> 100	> 100	> 100	44.9	> 100	18.7	> 100	64.4 µM	> 100 µM	14.3	> 100	17.3 µM	> 67.9 µM	> 63 µM	> 100	8.65	28.7
O=C1c2cc(F)ccc2-c2c1c1ccc([N+](=O)[O-])cc1c(=O)n2CCCBr	17.4	> 100 µM	13.1	82.6	5.98	51.8	7.62	38.2	22.8	77.7	3.38 µM	> 100 µM	4.87	> 100	1.96 µM	9.31 µM	46.8 µM	> 100	–	–
COc1cc2nc3cc([N+](=O)[O-])ccc3c(NCCNCC(C)O)c2cc1OC (stereo unspecified)	0.495	2.26 µM	1.63	3.67	1.55	5.52	0.768	2.51	–	–	0.445 µM	2.2 µM	0.224	1.06	1.23 µM	3.6 µM	0.482 µM	1.74	0.367	2.31
O=S(=O)(NCCCNc1cc(-c2cn(-c3ccccc3)nc2-c2cccc(O)c2)ccn1)c1ccc(Br)cc1	3.58	29 µM	–	–	1.45	4.68	1.49	2.9	1.57	3.59	2.45 µM	8.08 µM	2.11	4.85	1.5 µM	4.29 µM	1.66 µM	3.61	1.83	7.55
C=C1CC2(CCS(=O)(=O)c3ccccc32)OC1=O (stereo unspecified)	–	34.1 µM	–	32.1	–	10.6	–	33.3	–	31.6	–	–	–	11.4	–	15.7 µM	–	21	–	14.2
C=CCOC(=O)Nc1cccn([C@H](CC(C)C)C(=O)NCCC(C)C)c1=O	60.4	> 100 µM	66.5	> 100	22.7	> 100	–	–	> 100	> 100	> 100 µM	> 100 µM	63.8	> 100	> 100 µM	> 100 µM	54.5 µM	> 100	2.67	57.8
